Tests used:
Assay in all cases: Test B pre-/postemergence
Assay type in all cases: in vivo
Set-up in all cases: key: 0 is no effect; 10 is complete control
[1] = tested on: sugar beet (Beta vulgaris)
Description: (§1) Seeds of bedstraw (Galium aparine), blackgrass (Alopecurus myosuroides), broadleaf signalgrass (Brachiaria decumbens), cocklebur (Xanthium strumarium), corn (Zea mays), crabgrass (Digitaria sanguinalis), giant foxtail (Setaria faberii), lambsquarters (Chenopodium album), momingglory (Ipomoea hederacea), pigweed (Amaranthus retroflexus), rape (Brassica napus), soybean (Glycine max), sugar beet (Beta vulgaris), velvetleaf (Abutilon theophrasti), wheat (Triticum aestivum), wild oat (Avena fatua) and purple nutsedge (Cyperus rotundus) tubers were planted and treated preemergence with test chemicals formulated in a non-phytotoxic solvent mixture which included a surfactant.
(§2) At the same time, these crop and weed species were also treated with postemergence applications of test chemicals formulated in the same manner. Plants ranged in height from 2 to 18 cm (1- to 4-leaf stage) for postemergence treatments. Plant species in the flood test consisted of rice (Oryza sativa), smallflower flatsedge (Cyperus difformis), duck salad (Heteranthera limosa) and bamyardgrass (Echinochloa crus-galli) grown to the 2-leaf stage for testing. Treated plants and controls were maintained in a greenhouse for twelve to sixteen days, after which all species were compared to controls and visually evaluated. Plant response ratings, summarized in Table B, are based on a scale of 0 to 10 where 0 is no effect and 10 is complete control. A dash (−) response means no test result.

[2] = tested on: wheat (Triticum aestivum)
Description: as §1, §2

[3] = tested on: velvetleaf (Abutilon theophrasti)
Description: as §1, §2

[4] = tested on: soybean (Glycine max)
Description: as §1, §2

[5] = tested on: broadleaf signalgrass (Brachiaria decumbens)
Description: as §1, §2

[6] = tested on: blackgrass (Alopecurus myosuroides)
Description: as §1, §2

[7] = tested on: corn (Zea mays)
Description: as §1, §2

[8] = tested on: crabgrass (Digitaria sanguinalis)
Description: as §1, §2

[9] = tested on: momingglory (Ipomoea hederacea)
Description: as §1, §2

[10] = tested on: purple nutsedge (Cyperus rotundus)
Description: as §1, §2

[11] = tested on: cocklebur (Xanthium strumarium)
Description: as §1, §2

[12] = tested on: giant foxtail (Setaria faberii)
Description: as §1, §2

[13] = tested on: bedstraw (Galium aparine)
Description: as §1, §2

[14] = tested on: wild oat (Avena fatua)
Description: as §1, §2

[15] = tested on: pigweed (Amaranthus retroflexus)
Description: as §1, §2

[16] = tested on: rape (Brassica napus)
Description: as §1, §2

SMILES: Cc1cnc(-c2ccc(C(F)(F)F)cc2)nc1Cn1cnc(C(F)(F)F)n1 [Compound 11]
- Plant response rating, Sugarbeets ([1]; Rate 62 g/ha, Postemergence): 9
- Sugarbeets plant response rating ([1]; Rate 62 g/ha, Preemergence): 10
- Plant response rating, Sugarbeets ([1]; Rate 125 g/ha, Postemergence): 10
- Sugarbeets plant response rating ([1]; Rate 125 g/ha, Preemergence): 10
- Plant response rating, Sugarbeets ([1]; Rate 250 g/ha, Postemergence): 10
- Plant response rating, Sugarbeets ([1]; Rate 250 g/ha, Preemergence): 10
- Plant response rating, Sugarbeets ([1]; Rate 500 g/ha, Postemergence): 10
- Plant response rating, Sugarbeets ([1]; Rate 500 g/ha, Preemergence): 10
- Plant response rating, Wheat ([2]; Rate 62 g/ha, Postemergence): 2
- Wheat plant response rating ([2]; Rate 62 g/ha, Preemergence): 0
- Plant response rating, Wheat ([2]; Rate 125 g/ha, Postemergence): 2
- Wheat plant response rating ([2]; Rate 125 g/ha, Preemergence): 1
- Plant response rating, Wheat ([2]; Rate 250 g/ha, Postemergence): 3
- Plant response rating, Wheat ([2]; Rate 250 g/ha, Preemergence): 1
- Plant response rating, Wheat ([2]; Rate 500 g/ha, Postemergence): 3
- Plant response rating, Wheat ([2]; Rate 500 g/ha, Preemergence): 3
- Plant response rating, Velvetleaf ([3]; Rate 62 g/ha, Postemergence): 8
- Velvetleaf plant response rating ([3]; Rate 62 g/ha, Preemergence): 3
- Plant response rating, Velvetleaf ([3]; Rate 125 g/ha, Postemergence): 8
- Velvetleaf plant response rating ([3]; Rate 125 g/ha, Preemergence): 6
- Plant response rating, Velvetleaf ([3]; Rate 250 g/ha, Postemergence): 8
- Plant response rating, Velvetleaf ([3]; Rate 250 g/ha, Preemergence): 8
- Plant response rating, Velvetleaf ([3]; Rate 500 g/ha, Postemergence): 9
- Plant response rating, Velvetleaf ([3]; Rate 500 g/ha, Preemergence): 10
- Plant response rating, Soybean ([4]; Rate 62 g/ha, Postemergence): 5
- Soybean plant response rating ([4]; Rate 62 g/ha, Preemergence): 1
- Plant response rating, Soybean ([4]; Rate 125 g/ha, Postemergence): 7
- Soybean plant response rating ([4]; Rate 125 g/ha, Preemergence): 1
- Plant response rating, Soybean ([4]; Rate 250 g/ha, Postemergence): 8
- Plant response rating, Soybean ([4]; Rate 250 g/ha, Preemergence): 1
- Plant response rating, Soybean ([4]; Rate 500 g/ha, Postemergence): 9
- Plant response rating, Soybean ([4]; Rate 500 g/ha, Preemergence): 2
- Plant response rating, B. signalgrass ([5]; Rate 62 g/ha, Postemergence): 3
- B. signalgrass plant response rating ([5]; Rate 62 g/ha, Preemergence): 2
- Plant response rating, B. signalgrass ([5]; Rate 125 g/ha, Postemergence): 3
- B. signalgrass plant response rating ([5]; Rate 125 g/ha, Preemergence): 3
- Plant response rating, B. signalgrass ([5]; Rate 250 g/ha, Postemergence): 4
- Plant response rating, B. signalgrass ([5]; Rate 250 g/ha, Preemergence): 8
- Plant response rating, B. signalgrass ([5]; Rate 500 g/ha, Postemergence): 7
- Plant response rating, B. signalgrass ([5]; Rate 500 g/ha, Preemergence): 8
- Plant response rating, Blackgrass ([6]; Rate 62 g/ha, Postemergence): 2
- Blackgrass plant response rating ([6]; Rate 62 g/ha, Preemergence): 3
- Plant response rating, Blackgrass ([6]; Rate 125 g/ha, Postemergence): 3
- Blackgrass plant response rating ([6]; Rate 125 g/ha, Preemergence): 3
- Plant response rating, Blackgrass ([6]; Rate 250 g/ha, Postemergence): 7
- Plant response rating, Blackgrass ([6]; Rate 250 g/ha, Preemergence): 5
- Plant response rating, Blackgrass ([6]; Rate 500 g/ha, Postemergence): 5
- Plant response rating, Blackgrass ([6]; Rate 500 g/ha, Preemergence): 5
- Plant response rating, Corn ([7]; Rate 62 g/ha, Postemergence): 3
- Corn plant response rating ([7]; Rate 62 g/ha, Preemergence): 0
- Plant response rating, Corn ([7]; Rate 125 g/ha, Postemergence): 3
- Corn plant response rating ([7]; Rate 125 g/ha, Preemergence): 0
- Plant response rating, Corn ([7]; Rate 250 g/ha, Postemergence): 3
- Plant response rating, Corn ([7]; Rate 250 g/ha, Preemergence): 0
- Plant response rating, Corn ([7]; Rate 500 g/ha, Postemergence): 3
- Plant response rating, Corn ([7]; Rate 500 g/ha, Preemergence): 0
- Plant response rating, Crabgrass ([8]; Rate 62 g/ha, Postemergence): 2
- Crabgrass plant response rating ([8]; Rate 62 g/ha, Preemergence): 7
- Plant response rating, Crabgrass ([8]; Rate 125 g/ha, Postemergence): 4
- Crabgrass plant response rating ([8]; Rate 125 g/ha, Preemergence): 7
- Plant response rating, Crabgrass ([8]; Rate 250 g/ha, Postemergence): 6
- Plant response rating, Crabgrass ([8]; Rate 250 g/ha, Preemergence): 9
- Plant response rating, Crabgrass ([8]; Rate 500 g/ha, Postemergence): 7
- Plant response rating, Crabgrass ([8]; Rate 500 g/ha, Preemergence): 10
- Plant response rating, Morningglory ([9]; Rate 62 g/ha, Postemergence): 7
- Morningglory plant response rating ([9]; Rate 62 g/ha, Preemergence): 3
- Plant response rating, Morningglory ([9]; Rate 125 g/ha, Postemergence): 10
- Morningglory plant response rating ([9]; Rate 125 g/ha, Preemergence): 8
- Plant response rating, Morningglory ([9]; Rate 250 g/ha, Postemergence): 10
- Plant response rating, Morningglory ([9]; Rate 250 g/ha, Preemergence): 9
- Plant response rating, Morningglory ([9]; Rate 500 g/ha, Preemergence): 10
- Plant response rating, Nutsedge ([10]; Rate 62 g/ha, Postemergence): 1
- Plant response rating, Nutsedge ([10]; Rate 125 g/ha, Postemergence): 1
- Nutsedge plant response rating ([10]; Rate 125 g/ha, Preemergence): 0
- Plant response rating, Nutsedge ([10]; Rate 250 g/ha, Postemergence): 1
- Plant response rating, Nutsedge ([10]; Rate 250 g/ha, Preemergence): 0
- Plant response rating, Nutsedge ([10]; Rate 500 g/ha, Preemergence): 1
- Plant response rating, Cocklebur ([11]; Rate 62 g/ha, Postemergence): 7
- Cocklebur plant response rating ([11]; Rate 62 g/ha, Preemergence): 0
- Plant response rating, Cocklebur ([11]; Rate 125 g/ha, Postemergence): 8
- Plant response rating, Cocklebur ([11]; Rate 250 g/ha, Postemergence): 9
- Plant response rating, Cocklebur ([11]; Rate 250 g/ha, Preemergence): 3
- Plant response rating, Cocklebur ([11]; Rate 500 g/ha, Postemergence): 9
- Plant response rating, Giant foxtail ([12]; Rate 62 g/ha, Postemergence): 2
- Giant foxtail plant response rating ([12]; Rate 62 g/ha, Preemergence): 6
- Plant response rating, Giant foxtail ([12]; Rate 125 g/ha, Postemergence): 4
- Giant foxtail plant response rating ([12]; Rate 125 g/ha, Preemergence): 9
- Plant response rating, Giant foxtail ([12]; Rate 250 g/ha, Postemergence): 5
- Plant response rating, Giant foxtail ([12]; Rate 250 g/ha, Preemergence): 9
- Plant response rating, Giant foxtail ([12]; Rate 500 g/ha, Postemergence): 9
- Plant response rating, Giant foxtail ([12]; Rate 500 g/ha, Preemergence): 10
- Plant response rating, Bedstraw ([13]; Rate 62 g/ha, Postemergence): 8
- Bedstraw plant response rating ([13]; Rate 62 g/ha, Preemergence): 5
- Plant response rating, Bedstraw ([13]; Rate 125 g/ha, Postemergence): 9
- Bedstraw plant response rating ([13]; Rate 125 g/ha, Preemergence): 8
- Plant response rating, Bedstraw ([13]; Rate 250 g/ha, Postemergence): 10
- Plant response rating, Bedstraw ([13]; Rate 250 g/ha, Preemergence): 9
- Plant response rating, Bedstraw ([13]; Rate 500 g/ha, Postemergence): 10
- Plant response rating, Bedstraw ([13]; Rate 500 g/ha, Preemergence): 9
- Plant response rating, Wild oats ([14]; Rate 62 g/ha, Postemergence): 2
- Wild oats plant response rating ([14]; Rate 62 g/ha, Preemergence): 2
- Plant response rating, Wild oats ([14]; Rate 125 g/ha, Postemergence): 3
- Wild oats plant response rating ([14]; Rate 125 g/ha, Preemergence): 4
- Plant response rating, Wild oats ([14]; Rate 250 g/ha, Postemergence): 3
- Plant response rating, Wild oats ([14]; Rate 250 g/ha, Preemergence): 4
- Plant response rating, Wild oats ([14]; Rate 500 g/ha, Postemergence): 5
- Plant response rating, Wild oats ([14]; Rate 500 g/ha, Preemergence): 6
- Plant response rating, Redroot pigweed ([15]; Rate 62 g/ha, Postemergence): 9
- Redroot pigweed plant response rating ([15]; Rate 62 g/ha, Preemergence): 9
- Plant response rating, Redroot pigweed ([15]; Rate 125 g/ha, Postemergence): 10
- Redroot pigweed plant response rating ([15]; Rate 125 g/ha, Preemergence): 9
- Plant response rating, Redroot pigweed ([15]; Rate 250 g/ha, Postemergence): 10
- Plant response rating, Redroot pigweed ([15]; Rate 250 g/ha, Preemergence): 10
- Plant response rating, Redroot pigweed ([15]; Rate 500 g/ha, Postemergence): 10
- Plant response rating, Redroot pigweed ([15]; Rate 500 g/ha, Preemergence): 10
- Plant response rating, Rape ([16]; Rate 62 g/ha, Postemergence): 9
- Rape plant response rating ([16]; Rate 62 g/ha, Preemergence): 9
- Plant response rating, Rape ([16]; Rate 125 g/ha, Postemergence): 9
- Rape plant response rating ([16]; Rate 125 g/ha, Preemergence): 9
- Plant response rating, Rape ([16]; Rate 250 g/ha, Postemergence): 10
- Plant response rating, Rape ([16]; Rate 250 g/ha, Preemergence): 10
- Plant response rating, Rape ([16]; Rate 500 g/ha, Postemergence): 10
- Plant response rating, Rape ([16]; Rate 500 g/ha, Preemergence): 10

Source: patent publication US6525001B1, “Substituted pyrimidine and pyridine herbicides” (Mid-American Commercialization Corporation, priority 1997, dated 2003)
